Measured values: patent publication US20250312352A1, “GLP-1R MODULATING COMPOUNDS” (Gilead Sciences, Inc., priority 2021, published 2025)

target: T1, GLP-1R (Homo sapiens, UniProt P43220); test: GLP-1R activation cAMP assay (Assay 1 or Assay 2); format: cell-based; details: cAMP increase in CHO cells stably expressing GLP-1R; compounds run on one of the two cAMP assays
T1 construct: host or cells: CHO cells
Procedure, shortened: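 CHO cells stably expressing human GLP-1R were incubated 1 h in HBSS/20 mM HEPES/0.1% BSA, then exposed to 10-point agonist dilutions for 30 min at 37 °C. cAMP increase was measured with an HTRF Gs dynamic kit; EC50 from sigmoidal fit of response versus log concentration.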

T1 sequence (P43220 24-463): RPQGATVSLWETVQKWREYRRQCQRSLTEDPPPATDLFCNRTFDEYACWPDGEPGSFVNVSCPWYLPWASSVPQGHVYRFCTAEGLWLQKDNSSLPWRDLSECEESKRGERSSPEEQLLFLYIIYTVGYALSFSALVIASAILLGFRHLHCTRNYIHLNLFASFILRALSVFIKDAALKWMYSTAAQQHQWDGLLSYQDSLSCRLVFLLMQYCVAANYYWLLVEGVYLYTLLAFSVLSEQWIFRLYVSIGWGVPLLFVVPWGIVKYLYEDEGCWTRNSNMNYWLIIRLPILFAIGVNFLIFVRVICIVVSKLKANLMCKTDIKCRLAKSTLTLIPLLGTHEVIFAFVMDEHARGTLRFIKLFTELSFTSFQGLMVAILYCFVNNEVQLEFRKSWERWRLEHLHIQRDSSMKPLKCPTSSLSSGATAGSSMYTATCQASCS

| Structure (SMILES) | EC50 |
| --- | --- |
| Cn1nc(COc2cccc(-c3cc(F)c(Cc4nc5ccc(C(=O)O)cc5n4C[C@@H]4CCO4)cc3F)n2)cc1CC#N [Example 37, (S)-2-(4-(6-((5-(cyanomethyl)-1-methyl-1H-pyrazol-3-yl)methoxy)pyridin-2-yl)-2,5-difluorobenzyl)-1-(oxetan-2-ylmethyl)-1H-benzo[d]imidazole-6-carboxylic acid] | 8460 pM |
| O=C(O)c1ccc2nc(Cc3cc(F)c(-c4cccc(OCc5ncc(-c6ccc(C(F)(F)F)cc6)s5)n4)cc3F)n(C[C@H]3CCO3)c2c1 [Example 382, (R)-2-(2,5-difluoro-4-(6-((5-(4-(trifluoromethyl)phenyl)thiazol-2-yl)methoxy)pyridin-2-yl)benzyl)-1-(oxetan-2-ylmethyl)-1H-benzo[d]imidazole-6-carboxylic acid] | 1270 pM |
| COCCn1c(Cc2ccc(-c3cccc(OCc4ccc(C#Cc5cnc(N6CC7CCC(C6)N7C6COC6)nc5)cc4F)n3)cc2F)nc2ccc(C(=O)O)cc21 [Example 150, 2-(2-fluoro-4-(6-((2-fluoro-4-((2-(8-(oxetan-3-yl)-3,8-diazabicyclo[3.2.1]octan-3-yl)pyrimidin-5-yl)ethynyl)benzyl)oxy)pyridin-2-yl)benzyl)-1-(2-methoxyethyl)-1H-benzo[d]imidazole-6-carboxylic acid] | 10000 pM |
| COc1nnc(COc2cccc(-c3cc(F)c(Cc4nc5ccc(C(=O)O)cc5n4C[C@@H]4CCO4)cc3F)n2)s1 [Example 1, 2-[[2,5-difluoro-4-[6-[(5-methoxy-1,3,4-thiadiazol-2-yl)methoxy]-2-pyridyl]phenyl]methyl]-3-[[(2S)-oxetan-2-yl]methyl]benzimidazole-5-carboxylic acid] | 270 pM |
| O=C(O)c1ccc2nc(Cc3cc(F)c(-c4cccc(OCc5ccn(CC(F)F)n5)n4)cc3F)n(C[C@@H]3CCO3)c2c1 [Example 64, (S)-2-(4-(6-((1-(2,2-difluoroethyl)-1H-pyrazol-3-yl)methoxy)pyridin-2-yl)-2,5-difluorobenzyl)-1-(oxetan-2-ylmethyl)-1H-benzo[d]imidazole-6-carboxylic acid] | 6380 pM |
| Cc1nc(C#Cc2cnc(COc3cccc(-c4cc(F)c(Cc5nc6ccc(C(=O)O)cc6n5C[C@@H]5CCO5)cc4F)n3)c(F)c2)cs1 [Example 291, (S)-2-(2,5-difluoro-4-(6-((3-fluoro-5-((2-methylthiazol-4-yl)ethynyl)pyridin-2-yl)methoxy)pyridin-2-yl)benzyl)-1-(oxetan-2-ylmethyl)-1H-benzo[d]imidazole-6-carboxylic acid] | 689 pM |
| CCOc1nnc(COc2nc(-c3cc(F)c(Cc4nc5ccc(C(=O)O)cc5n4CC4(CF)CC4)cc3F)ccc2F)s1 [Example 256, 2-(4-(6-((5-ethoxy-1,3,4-thiadiazol-2-yl)methoxy)-5-fluoropyridin-2-yl)-2,5-difluorobenzyl)-1-((1-(fluoromethyl)cyclopropyl)methyl)-1H-benzo[d]imidazole-6-carboxylic acid] | 443 pM |
| Cc1cc(Cc2nc3c(F)cc(C(=O)O)cc3n2C[C@@H]2CCO2)c(F)cc1-c1cccc(OCc2cnc(-c3cnn(C4CC4)c3)cc2Cl)n1 [Example 163, (S)-2-(4-(6-((4-chloro-6-(1-cyclopropyl-1H-pyrazol-4-yl)pyridin-3-yl)methoxy)pyridin-2-yl)-2-fluoro-5-methylbenzyl)-4-fluoro-1-(oxetan-2-ylmethyl)-1H-benzo[d]imidazole-6-carboxylic acid] | 700 pM |
| Cn1cc(C#Cc2ccc(COc3cccc(-c4cc(F)c(Cc5nc6c(F)cc(C(=O)O)cc6n5C[C@@H]5CCO5)cc4F)n3)cn2)cn1 [Example 391, (S)-2-(2,5-difluoro-4-(6-((6-((1-methyl-1H-pyrazol-4-yl)ethynyl)pyridin-3-yl)methoxy)pyridin-2-yl)benzyl)-4-fluoro-1-(oxetan-2-ylmethyl)-1H-benzo[d]imidazole-6-carboxylic acid] | 305 pM |

Stronger by EC50, values ahead:

| EC50 | Structure (SMILES) |
| --- | --- |
| 110 pM | O=C(O)c1ccc2nc(Cc3cc(F)c(-c4cccc(OCc5nnc(C6CC(F)(F)C6)s5)n4)cc3F)n(C[C@@H]3CCO3)c2c1 [Example 385, (S)-2-(4-(6-((5-(3,3-difluorocyclobutyl)-1,3,4-thiadiazol-2-yl)methoxy)pyridin-2-yl)-2,5-difluorobenzyl)-1-(oxetan-2-ylmethyl)-1H-benzo[d]imidazole-6-carboxylic acid] |
| 70 pM | Cc1nc(COc2cccc(-c3cc(F)c(Cc4nc5ccc(C(=O)O)cc5n4C[C@H]4CCO4)cc3F)n2)sc1-c1cnn(C)c1 [Example 104, (R)-2-(2,5-difluoro-4-(6-((4-methyl-5-(1-methyl-1H-pyrazol-4-yl)thiazol-2-yl)methoxy)pyridin-2-yl)benzyl)-1-(oxetan-2-ylmethyl)-1H-benzo[d]imidazole-6-carboxylic acid] |
| 110 pM | N#Cc1cnc(COc2cccc(-c3cc(F)c(Cc4nc5ccc(C(=O)O)cc5n4C[C@@H]4CCO4)cc3F)n2)s1 [Example 2, (S)-2-(4-(6-((5-cyanothiazol-2-yl)methoxy)pyridin-2-yl)-2,5-difluorobenzyl)-1-(oxetan-2-ylmethyl)-1H-benzo[d]imidazole-6-carboxylic acid] |
| 70 pM | O=C(O)c1ccc2nc(Cc3cc(F)c(-c4cccc(OCc5nnc(-c6cnn(C(F)F)c6)s5)n4)cc3F)n(C[C@@H]3CCO3)c2c1 [Example 92, (S)-2-(4-(6-((5-(1-(difluoromethyl)-1H-pyrazol-4-yl)-1,3,4-thiadiazol-2-yl)methoxy)pyridin-2-yl)-2,5-difluorobenzyl)-1-(oxetan-2-ylmethyl)-1H-benzo[d]imidazole-6-carboxylic acid] |
| 70 pM | O=C(O)c1ccc2nc(Cc3cc(F)c(-c4cccc(OCc5ncc(-c6cnn(C(F)F)c6)s5)n4)cc3F)n(C[C@@H]3CCO3)c2c1 [Example 84, (S)-2-(4-(6-((5-(1-(difluoromethyl)-1H-pyrazol-4-yl)thiazol-2-yl)methoxy)pyridin-2-yl)-2,5-difluorobenzyl)-1-(oxetan-2-ylmethyl)-1H-benzo[d]imidazole-6-carboxylic acid] |
| 230 pM | O=C(O)c1ccc2nc(Cc3cc(F)c(-c4cccc(OCc5nc6cccnc6s5)n4)cc3F)n(C[C@@H]3CCO3)c2c1 [Example 26, (S)-2-(2,5-difluoro-4-(6-(thiazolo[5,4-b]pyridin-2-ylmethoxy)pyridin-2-yl)benzyl)-1-(oxetan-2-ylmethyl)-1H-benzo[d]imidazole-6-carboxylic acid] |
| 205 pM | O=C(O)c1ccc2nc(Cc3cc(F)c(-c4cccc(OCc5ncc(C#CC6CCC6)s5)n4)cc3F)n(C[C@@H]3CCO3)c2c1 [Example 333, (S)-2-(4-(6-((5-(cyclobutylethynyl)thiazol-2-yl)methoxy)pyridin-2-yl)-2,5-difluorobenzyl)-1-(oxetan-2-ylmethyl)-1H-benzo[d]imidazole-6-carboxylic acid] |
| 182 pM | COc1nnc(COc2cccc(-c3cc(F)c(Cc4nc5c(F)cc(C(=O)O)cc5n4C[C@@H]4CCO4)cc3F)n2)s1 [Example 351, (S)-2-(2,5-difluoro-4-(6-((5-methoxy-1,3,4-thiadiazol-2-yl)methoxy)pyridin-2-yl)benzyl)-4-fluoro-1-(oxetan-2-ylmethyl)-1H-benzo[d]imidazole-6-carboxylic acid] |
